The term melting point denotes the temperature, or range, at which the solid turns liquid. Compound `CNC(=O)Oc1c(OC)c(OC)c(OC(=O)NC)c2ccccc12` registered a melting point of 228 to 229 °C.
Next, `N#Cc1ccc2cc(CCc3cc4ccc(C#N)cc4o3)oc2c1`: 266 to 267 °C; `CCN1CCNC(=O)C1c1ccc(N)cc1` (configuration not stated): 153 to 154 °C; `CCCCCCCCCc1ccc2c(c1)C1(O)C(=O)c3ccccc3C1(O)O2` (configuration not stated): 108 to 110 °C.
The compound `Cn1cnc([N+](=O)[O-])c1Sc1nc(N)nc2c1ncn2C1C=CC(CO)C1` (configuration not stated) displayed a melting point of 207 to 208 °C.
The value for `COc1cc(N2C(=O)CCC2=O)ccc1OCCCN1CCN(c2ccccc2)CC1` was 166 to 167 °C; that for `CCCCc1nc2c(n1Cc1ccc(C(=O)OC)cc1)C[C@@H](C(=O)O)N(C(=O)C(c1ccccc1)c1ccccc1)C2` was 176 to 180 °C.
The value for `CSc1ccc(CC#N)cc1` was 44 to 45 °C.
In turn, `O=C1C(=O)c2ccc(Br)cc2C2=C1SCC1(CCN(Cc3ccc(F)cc3)CC1)O2` displayed a melting point of 210 to 211 °C.
The value for `Cc1nccn1-c1cnc2[nH]cc(C(=O)C(C)(C)C)c2n1` was 247 to 249 °C; that for `CC1CC(C)OP(=O)(Cc2ccc([N+](=O)[O-])cc2)O1` (configuration not stated) was 152 to 153 °C.
The value for `CCc1nnc(NS(=O)(=O)c2ccc(NC(C)=O)cc2)s1` was 197 to 198 °C; that for `Cc1cn2c(C(F)(F)F)nnc2c2ccccc12` was 162 to 164 °C.
`O=CNCC=C(c1ccc(-c2ccccc2)cc1)c1ccc(-c2ccccc2)cc1` displayed a melting point of 171 to 173 °C.
The value for `O=C(O)c1c[nH]c2nc(Cl)ccc2c1=O` was 271 to 273 °C.
In turn, `c1ccc2c(c1)-c1nccc3ccnc-2c13` displayed a melting point of 152 to 153 °C.
The compound `COc1cc(Cl)ccc1CCl` showed a melting point of 43 to 45 °C.
The value for `O=C(O)COc1cc(F)ccc1C(=S)NCc1cccc([N+](=O)[O-])c1` was 147 to 150 °C.
Consider `CC(C)NC(=O)C(O)C(Oc1ccccc1)c1ccccc1` (configuration not stated), for which the melting point lay within 166 to 168 °C.
The value for `CC(=O)S[C@@H]1CCNC1=S` was 98 to 100 °C.
The value for `O=C(Nc1cccc(F)n1)c1cc(-c2ccc(Cl)cc2)nc2ccccc12` was 200 to 201 °C.
With `O=C(CSCCCOc1ccccc1)NNC(=O)c1ccc(O)cc1`, the melting point is 146 to 151 °C.
Next, `COC(=O)c1ccc(C(C)(C)NC(C)=O)cc1`: 165 to 167 °C.
Next, `CN(C)C(=O)N1CCC2(CC1)CN=C(c1cc3cccc(N(C)S(=O)(=O)c4cccs4)c3[nH]1)S2`: 245 °C; `Cc1ccc(-c2c(Cl)ncn2-c2ccc(S(C)(=O)=O)cc2)cc1Cl`: 181 to 182 °C.
In turn, `COc1ccc(-c2cn(C)cc(-c3ccccc3)c2=O)cc1OC` displayed a melting point of 154 to 157 °C.
The value for `Brc1cc(Br)c(CSCc2cc(Br)c(Br)cc2Br)cc1Br` was 173 to 175 °C; that for `Cc1nc2ccc(NS(=O)(=O)c3cccc(Cl)c3C)cc2nc1C` was 225 to 226 °C.
Compound `CCC12CCC3c4ccc(OC)cc4CCC3C1CCC2O` (configuration not stated) yielded a melting point of 126 to 130 °C.
The value for `O=C1CNC(c2ccc([N+](=O)[O-])cc2)=NN1` was 284 to 286 °C; that for `COc1ccccc1C1(O)C(O)CC(c2ccccc2)(c2ccccc2)C2CN(C(=O)Cc3ccccc3O)CC21` (configuration not stated) was 188 to 190 °C.
`CCCc1c(OCCCC(=O)NCCCc2cccnc2)ccc(C(C)=O)c1O` yielded a melting point of 97 to 98 °C.
Next, `CCCCCNc1cccc2c1CN(C1CCC(=O)NC1=O)C2=O` (configuration not stated): 244 to 246 °C; `CN(C)C(=O)n1oc(CCl)c(Cl)c1=O`: 107 to 108 °C; `O=C(OCc1cc(F)nc(F)c1)c1ccccc1`: 83 to 84 °C.
The value for `CCOC(=O)CCc1cc(O)nn1C(C)C` was 119 to 120 °C.
Take `C=CCO/N=C(/C(=O)OCC)c1ccc(OCCOc2ccc3ccccc3c2)s1`: the melting point lay within 75 to 77 °C.
The compound `Cc1ccc(-c2c(Cl)nc3ncnn3c2NC2CCCC2)cc1` came in with a melting point of 158 °C.
Next, `CCOc1ccc(S(=O)(=O)Cl)cc1OC`: 72 to 73 °C.
Next, `COc1cccc(-c2nc(Cl)nc(Nc3ccc(O)cc3)n2)c1`: 164 °C; `O=C(OCN1C(=O)c2ccccc2S1(=O)=O)c1c(Cl)cncc1Cl`: 159 to 160 °C; `O=C(O)COCCc1ccc(F)cc1`: 82 to 85 °C.
Next, `CCCC(=O)C(=CNc1cscc1OC)C(=O)OCC`: 89 to 91 °C; `CCCCOC(=O)c1cc(O)c(O)c(C#N)c1`: 135 to 140 °C.
As to `CC#CCOc1cc2ncc(C#N)c(Nc3cc(OC)c(Cl)cc3Cl)c2cc1OC`, the melting point is 193 to 197 °C.
Next, `O=[N+]([O-])c1ccc(CNc2cccc(S(=O)(=O)O)c2)cc1`: > 275 °C.
Next, `NCCCCC(=O)N1CCC(c2[nH]nc3c2C(=O)c2c(NC(=O)NN4CCOCC4)cccc2-3)CC1`: 103 to 105 °C; `Cc1ccc(C[C@H]2NC(=O)CN(Cc3ccccc3)C2=O)cc1C`: 191 to 192 °C.
The value for `CCCNc1nc(C#N)c(C#N)nc1-c1cccc(Cl)c1` was 120 to 121 °C; that for `Clc1ccccc1N1CCN(Cc2nc3ccccc3[nH]2)CC1` was 245 to 246 °C; that for `Cn1nc(CO)nc1NCCCOc1cccc(CN2CCCCC2)c1` was 118 to 119 °C.
For the compound `O=C1CCCN1CC1CCN(c2nc(C(F)(F)F)ncc2O)CC1`, the melting point lay within 213 to 215 °C.
On to `CC(O)Cn1nc2c3c(cc(O)cc31)CCC2` (configuration not stated), for which the melting point fell in the range of 153 to 155 °C.
Next, `COc1cc2c(cc1N1CCN(CC3Cc4ccccc4C3)CC1)OC=CCO2`: 120 to 122 °C; `CCc1ccc(C#CC(C)N(O)C(=O)NC)cc1` (configuration not stated): 126 to 128 °C.
`Cc1nnc2n1-c1ccc(C#CCn3c(C)nc4ccccc4c3=O)cc1C(c1ccccc1F)=NC2`: the melting point was 241 to 244 °C.
`OC1Cc2ccc3ccccc3c21` (configuration not stated) came in with a melting point of 96 to 100 °C.
Next, `Cc1nc2c(N)nc3cc(OCCC4CCN(C(=O)C5CCCC5)CC4)ccc3c2n1CC(C)C`: 236 to 238 °C; `C1=CCC2=c3cnc4ccccc4c3=NC2=C1`: 146 to 148 °C.
In turn, `CCc1cn(C)cc(-c2cccc(C(F)(F)F)c2)c1=O` showed a melting point of 95.5 to 96.5 °C.
Next, `CC(=O)OC1CC2C=CC3C4CCC(C(C)CCCC(C)C)C4(C)CCC3C2(C)C(OC(C)=O)C1` (configuration not stated): 116 to 118 °C; `CN(C)C(=O)COc1cccc(C(F)(F)F)c1`: 88.5 to 89.5 °C; `COc1ccc(C(=O)N2C(=O)CCC2CCC(=O)OCc2ccccc2)cc1` (configuration not stated): 80 to 83 °C.
The value for `OCc1ccc(C2=CCCCC2)cc1` was 70 to 71 °C.
Next, `NS(=O)(=O)c1cc(C=O)cs1`: 146 to 149 °C.
The compound `Cc1nc(N2CCc3ccccc3CC2)c(C#N)c(=O)n1NC(=O)OC(C)(C)C` displayed a melting point of 150 to 152 °C.
In the case of `CC(=O)Oc1cc(C)cc(C(=O)N[C@@H](Cc2ccccc2)[C@H](O)C(=O)O)c1C`, the melting point was in the range of 220 to 224 °C.
The value for `CCOC(=O)Oc1ccc(S(=O)(=O)N2c3cc(F)ccc3-n3cccc3C2CC)cc1` (configuration not stated) was 96 to 97 °C; that for `C=CS(=O)(=O)CCCS(=O)(=O)C=C` was 60 to 63 °C.
`COc1cc2ncnc(N3CCN(C(=S)Nc4ccc(CNC(=O)OC(C)(C)C)cc4)CC3)c2cc1OC` had a melting point of 123 to 126 °C.
The value for `CS(=O)(=O)OCCCCC1C(=O)Nc2ccc(F)cc21` (configuration not stated) was 106 to 108 °C; that for `CN(C)CCCCNc1ncc2c(n1)-c1ccccc1C(c1cccc(Br)c1)C2` (configuration not stated) was 115 to 117 °C.
As to `CCc1nc2c(N)nc3cc(OS(C)(=O)=O)ccc3c2n1CCOc1ccccc1`, the melting point lay within 213 to 214 °C.
Next, `OCC=Cc1cccc(-c2nnn[nH]2)c1`: 174 °C.
Next, `CCOC(=O)C1=C(C)NC(SCc2ccc(OC)cc2)=NC1c1cccc(C)c1` (configuration not stated): 65 to 67 °C.
The value for `COCCOc1cc(Oc2ccc(C(F)(F)F)cn2)ccc1CCCOc1cc(CCC(=O)O)n(C)n1` was 110 °C.
Take `O=c1[nH]c2ccc(S(=O)(=O)N3CCN(c4ccccn4)CC3)c3c2c2c(cccc12)C3`: the melting point was in the range of 263 to 270 °C.
The value for `COC(=O)N1CC[C@H](NC(C)=O)C[C@H]1Cc1ccc(Cl)cc1` (relative stereo) was 169 to 170 °C.
The value for `c1ccc(C(CC2=NCCN2)c2ccccc2)cc1` was 173 to 175 °C; that for `COC(=O)C1=C(O)C(=O)O[C@@H]1C` was 94 to 96 °C; that for `CC(C)C/C(=C/CCNC(=O)OCc1ccccc1)C(=O)O` was 70 to 71 °C.
`Cc1ccnc2c1C(=O)c1ccccc1-2` registered a melting point of 130 to 131 °C.
`O=C(NCC12CC3CC(CC(C3)C1)C2)c1cccnc1Sc1cc(O)ccc1O` displayed a melting point of 108 to 110 °C.
The value for `COc1cc(NC(=S)NC(=O)c2ccccc2)cc(-c2ccccc2)c1` was 149 °C.
`O=C(CCCCl)Nc1cccc(Cc2n[nH]c(=O)c3ccccc23)c1` came in with a melting point of 180 to 184 °C.
The value for `COC(=O)[C@@]12CN(Cc3ccccc3)C[C@@H]1[C@@](O)(c1ccc(OC)cc1)CC[C@H]2c1ccccc1` (racemic) was 136 °C.
Next, `CC(=O)N1c2ccccc2Sc2c(O)c(O)c3ccccc3c21`: 258 to 260 °C; `Oc1ccnc2ccc(Cl)cc12`: 274 to 275 °C; `CC(C)N1Cc2c(F)cccc2N(CCN2CC=C(c3c[nH]c4cc(F)ccc34)CC2)S1(=O)=O`: 107 to 109 °C.
In the case of `CCCc1nn(-c2ccc(C(F)(F)F)cn2)cc1CCCOc1nn(-c2ccccc2)cc1CC(=O)O`, the melting point was in the range of 123 to 124 °C.
The value for `O=C1CCC(C(=O)O)(c2ccc(Cl)cc2)CC1` was 162 to 164 °C.
The value for `CCOC(=O)C1=C(N)N=C(SC)C(C(=O)OCC)C1c1cccc([N+](=O)[O-])c1` (configuration not stated) was 144 °C.

For the origin of these results see a melting point compilation (Tetko et al.; mined from patent text by program, amines drawn as free bases though some values may be those of a salt).
